Source: ChEMBL document CHEMBL3822423 (J Med Chem, 2016)
In brackets after ≈: the same amount, converted by molar mass. Activity calls are given as the source filed them. The rule behind the calls is not given here.

Tests used:
Assay type in all cases: functional
[1] = system: Bacillus spizizenii; assay: Antibacterial activity against Bacillus subtilis ATCC 6633 after 18 to 24 hrs
[2] = system: Micrococcus luteus; assay: Antibacterial activity against Micrococcus luteus ATCC 4698 after 18 to 24 hrs; conditions: NCTC 2665
[3] = system: Bacillus; assay: Antibacterial activity against Bacillus proteus ATCC 13315 after 18 to 24 hrs
[4] = system: Staphylococcus aureus; assay: Antibacterial activity against methicillin-resistant Staphylococcus aureus N315 after 18 to 24 hrs
[5] = system: Pseudomonas aeruginosa; assay: Antibacterial activity against Pseudomonas aeruginosa ATCC 9027 after 18 to 24 hrs
[6] = (§1) Antibacterial activity against Eberthella typhosa ATCC 14028 after 18 to 24 hrs
[7] = system: Escherichia coli; assay: Antibacterial activity against Escherichia coli ATCC 25922 after 18 to 24 hrs
[8] = system: Staphylococcus aureus; assay: Antibacterial activity against Staphylococcus aureus ATCC 25923 after 18 to 24 hrs
[9] = system: Eberthella typhosa; assay: as §1

SMILES	MIC [1]	MIC [2]	MIC [3]	MIC [4]	MIC [5]	MIC [6] [µg/mL]	MIC [7]	MIC [8]	MIC [9]
CCn1cc(-c2csc(N)n2)c(=O)c2cc(OC)ccc21	10.7 µg/mL (≈ 35.5 µM)	42.7 µg/mL (≈ 142 µM)	2.7 µg/mL (≈ 8.96 µM)	256 µg/mL (≈ 849 µM)	21.3 µg/mL (≈ 70.7 µM)	8 (≈ 26.5 µM)	13.3 µg/mL (≈ 44.1 µM)	18.8 µg/mL (≈ 62.4 µM)	
CCn1cc(C(C)=O)c(=O)c2cc(F)c(N3CCN(C(=O)OC(C)(C)C)CC3)cc21	21.3 µg/mL (≈ 51 µM)	inactive	16 µg/mL (≈ 38.3 µM)	64 µg/mL (≈ 153 µM)	inactive	42.7 (≈ 102 µM)	128 µg/mL (≈ 307 µM)	16 µg/mL (≈ 38.3 µM)	
CCn1cc(-c2csc(N)n2)c(=O)c2cccc(F)c21	13.3 µg/mL (≈ 46 µM)	2.7 µg/mL (≈ 9.33 µM)	256 µg/mL (≈ 885 µM)	inactive	24 µg/mL (≈ 82.9 µM)		9.3 µg/mL (≈ 32.1 µM)	inactive	inactive
CCn1cc(-c2csc(N)n2)c(=O)c2cc(C)ccc21	64.4 µg/mL (≈ 226 µM)	5.4 µg/mL (≈ 18.9 µM)	0.8 µg/mL (≈ 2.8 µM)	129 µg/mL (≈ 451 µM)	2.7 µg/mL (≈ 9.46 µM)	24.1 (≈ 84.5 µM)	4.7 µg/mL (≈ 16.5 µM)	2.4 µg/mL (≈ 8.41 µM)	
CCn1cc(C(C)=O)c(=O)c2cc(N3CCCC3)c(Cl)cc21	10.7 µg/mL (≈ 33.6 µM)	10.7 µg/mL (≈ 33.6 µM)	64 µg/mL (≈ 201 µM)	16 µg/mL (≈ 50.2 µM)	9.3 µg/mL (≈ 29.2 µM)	18.7 (≈ 58.7 µM)	26.7 µg/mL (≈ 83.8 µM)	18.7 µg/mL (≈ 58.7 µM)	
CCn1cc(-c2csc(N)n2)c(=O)c2cc(Cl)cc(Cl)c21	2.7 µg/mL (≈ 7.94 µM)	16 µg/mL (≈ 47 µM)	3.3 µg/mL (≈ 9.7 µM)	inactive	2.3 µg/mL (≈ 6.76 µM)	2.7 (≈ 7.94 µM)	21.2 µg/mL (≈ 62.3 µM)	3 µg/mL (≈ 8.82 µM)	
CCn1cc(-c2csc(N)n2)c(=O)c2cc(F)c(N3CCCCC3)cc21	42.7 µg/mL (≈ 115 µM)	inactive	37.3 µg/mL (≈ 100 µM)	53.3 µg/mL (≈ 143 µM)	42.7 µg/mL (≈ 115 µM)	74.7 (≈ 201 µM)	128 µg/mL (≈ 344 µM)	64 µg/mL (≈ 172 µM)	
CCn1cc(C(C)=O)c(=O)c2cc(F)c(N3CCCCC3)cc21	12.7 µg/mL (≈ 40.1 µM)	10.1 µg/mL (≈ 31.9 µM)	20.3 µg/mL (≈ 64.2 µM)	17.8 µg/mL (≈ 56.3 µM)	22.8 µg/mL (≈ 72.1 µM)	121 (≈ 383 µM)	40.6 µg/mL (≈ 128 µM)	8.9 µg/mL (≈ 28.1 µM)	
CCn1cc(-c2csc(N)n2)c(=O)c2cc(N3CCCCC3)c(Cl)cc21	19.6 µg/mL (≈ 50.4 µM)	49 µg/mL (≈ 126 µM)	34.4 µg/mL (≈ 88.4 µM)	24.6 µg/mL (≈ 63.3 µM)	34.4 µg/mL (≈ 88.4 µM)	17.2 (≈ 44.2 µM)	118 µg/mL (≈ 303 µM)	61.2 µg/mL (≈ 157 µM)	
CCn1cc(-c2csc(N)n2)c(=O)c2cc(N3CCNCC3)c(Cl)cc21	2 µg/mL (≈ 5.13 µM)	32 µg/mL (≈ 82.1 µM)	6.4 µg/mL (≈ 16.4 µM)	inactive	10.7 µg/mL (≈ 27.4 µM)	8 (≈ 20.5 µM)	128 µg/mL (≈ 328 µM)	8 µg/mL (≈ 20.5 µM)	
CCn1cc(C(C)=O)c(=O)c2cc(N3CCOCC3)c(Cl)cc21	inactive	53.3 µg/mL (≈ 159 µM)	13.3 µg/mL (≈ 39.7 µM)	128 µg/mL (≈ 382 µM)	42.7 µg/mL (≈ 128 µM)	37.3 (≈ 111 µM)	inactive	inactive	
CCn1cc(-c2csc(N)n2)c(=O)c2cc(F)c(N3CCCC3)cc21	53.3 µg/mL (≈ 149 µM)	107 µg/mL (≈ 298 µM)	128 µg/mL (≈ 357 µM)	17.3 µg/mL (≈ 48.3 µM)	42.7 µg/mL (≈ 119 µM)	42.7 (≈ 119 µM)	9.3 µg/mL (≈ 25.9 µM)	32 µg/mL (≈ 89.3 µM)	
CCn1cc(-c2csc(N)n2)c(=O)c2cc(F)cc(F)c21	inactive	256 µg/mL (≈ 833 µM)	inactive	inactive	inactive		64 µg/mL (≈ 208 µM)	inactive	inactive
